# According to patent publication US10189803B2, “Synthesis of therapeutic and diagnostic drugs centered on regioselective and stereoselective ring opening of aziridinium ions” (ILLINOIS INSTITUTE OF TECHNOLOGY, priority 2008, dated 2019):
# “And” between values parts separate entries of the source, which are not always exact repeats. Equal entries are not always repeated. “Also recorded” adds a separate entry of the source.
# Tests used:
# Hela cells = experiment: Antiproliferative activity, MTS assay, HeLa cells; type: cell-based, Human; settings: for IC50: 72 h incubation, MTS; for cytotoxicity in HeLa cells over a series of concentrations (in words): FIG. 18
# Description: (§1) Cell culture Human cervix HeLa cell line was obtained from ATCC (Rockville, Md.) and cultured in minimum essential medium (MEM) with L-glutamine (2 mM), Earle's BSS and sodium bicarbonate (1.5 g/L), supplemented with 10% fetal bovine serum (FBS), non-essential amino acids (0.1 mM), sodium pyruvate (1 mM) and antibiotic/antimycotic solution in a humidified atmosphere with 5% CO2 at 37° C. […] Lung fibroblast MRC-5 cell line was obtained from ATCC (Rockville, Md.) and cultured in ATCC formulated EMEM, supplemented with 10% fetal bovine serum (FBS) in a humidified atmosphere with 5% CO2 at 37° C.
# (§2) Antiproliferative Activity. Cells were seeded onto 96-well plate at density of 2,000 cells for Hela cells or 5,000 cells for HT29 cells or 5,000 cells for MRC-5 per well in 0.1 mL complete medium and allowed to attach for 24 h. Varying concentrations of the test compounds in the final volume of 0.1 mL complete medium were then added in at least five series dilutions and incubated for 72 h. To measure cell proliferation, the Cell Titer 96 aqueous nonreactive cell proliferation assay (Promega Life Sciences, Madison, Wis.) was used according to the manufacturer's instructions. Briefly, MTS (2 mg/mL) and PMS (0.92 mg/ml) were mixed in a ratio of 20:1. An aliquot (20 μL) of the MTS/PMS mixture was added into each well, and the plate was incubated for 3 h at 37° C. Optical absorbance at 490 nm was then recorded with an enzyme-linked immunosorbent assay (ELISA) microtiter plate reader (Biotek). Each experiment was done at least in triplicate. Antiproliferative activity of the test compounds was expressed as the fraction of optical densities of treated the cells relative to the untreated solvent controls.^31 The data were plotted in GraphPad Prizm 3.0. Nonlinear regression analysis was used to determine IC50 values.
# (§3) Cell culture. Human cervix HeLa cell line was obtained from ATCC (Rockville, Md.) and cultured in minimum essential medium (MEM) with L-glutamine (2 mM), Earle's BSS and sodium bicarbonate (1.5 g/L), supplemented with 10% fetal bovine serum (FBS), non-essential amino acids (0.1 mM), sodium pyruvate (1 mM) and antibiotic/antimycotic solution in a humidified atmosphere with 5% CO2 at 37° C.
# as §2, with “activity.” for “Activity.”, “cells” for “cells or 5,000 cells for MRC-5”, “controls.” for “controls.^31”
# HT29 cells = experiment: Antiproliferative activity, MTS assay, HT29 cells; type: cell-based, Human
# Description: as §1, §2, §3
# as §2, with “activity.” for “Activity.”, “cells” for “cells or 5,000 cells for MRC-5”, “controls.” for “controls.^31”
# [1] = In vitro serum stability of 64Cu-labeled ligands in rat serum (radio-TLC); type: in vitro ADME; settings: for Purity (serum stability, radio-TLC): 37° C., n=3; for stability in rat serum (in words): 48 hours; for 64Cu dissociated from the complex: in 24 hours
# Description: The radiolabeling reactions of the ligands with ^64Cu were performed at elevated temperatures to ensure complete complex formation. At the no-carrier-added (NCA) level, all ligands were successfully labeled with ^64Cu in quantitative radiochemical yields (100%) as determined by radio-TLC. […] The ^64Cu-labeled complexes were freshly prepared for their serum stability evaluation, which was assessed by measuring the transfer of radionuclide from the complex to serum proteins over 24 hours or 48 hours.
# In vitro serum stability: To 100 μL of rat serum, 10 μL of each ^64Cu-labeled complex was added (n=3 per complex). DOTA labeled with ^64Cu was used as a positive control. The resulting solutions were incubated at 37° C. in a water-bath. At 1 h, 4 h, 24 h and 48 h after the complex addition to rat serum, the solutions were sampled and analyzed by radio-TLC.
# [2] = In vitro serum stability of 177Lu-labeled complexes (radio-TLC, HPLC); type: in vitro ADME, mouse; design: Radiolabled Complex, in vitro serum stability (Table 1): unit not given here; settings: for Radiolabled Complex, in vitro serum stability (Table 1): 37° C.
# Description: The new ligand DEPA was radiolabeled with ^177Lu and ^205/6Bi (a surrogate of ^212Bi and ^213Bi) and the corresponding radiolabeled complexes were evaluated for in vitro serum stability as described previously. For comparison, DOTA was also radiolabeled with ^177Lu. DEPA and DOTA (0.25 M NH4OAc buffer, pH 4.0) was radiolabeled with ^177Lu at 45° C. for 0.5 h to afford ^177Lu-DEPA (Rf=0.6) and ^177Lu-DOTA (Rf=0.4) in the respective radiochemical yield of 90% and 95% as determined by radio-TLC. DEPA (0.25 M NH4OAc buffer, pH 5.0) was successfully radiolabeled with ^205/6Bi at room temperature for 1 h to afford ^205/6Bi-DEPA in 96% yield (radio-TLC). ^177Lu-DOTA, 177Lu-DEPA, and ^205/6Bi-DEPA formed were purified from unbound ^205/6Bi by ion-exchange chromatography using a Chelex-100 column (1 mL volume bed, 100-200 mesh, Na^+ form, Bio-Rad, Richmond, Calif.) eluted with PBS (pH 7.4). In vitro serum stability of the purified radiolabeled complexes was performed to determine if DEPA or DOTA radiolabeled with ^177Lu or ^205/6Bi remained stable without loss of the radionuclide in human serum. This was assessed by measuring the transfer of radionuclide from the complex to serum proteins. […] However, ˜10% of the radioactivity was released from ^177Lu-DOTA over 4 days.
# In vitro serum stability of the radiolabeled metal complexes. An aliquot of 3.7 MBq of the purified ^177Lu-labeled ligands was added to 0.5 mL of mouse serum (Sigma, St. Louis, Mo.) and 0.1% NaN3. The resulting mixture was incubated at 37° C. for 96 h. Aliquots of 2 μL of the resulting mixture were analyzed by radio-TLC and HPLC at different time points, 0, 0.25, 0.5, 1, 2, 4, 6, 24, 48, and 96 h of incubation. The stability of purified ^205/6Bi-DEPA was evaluated in human serum (Gemini Bioproducts, Woodland, Calif.) for 14 days by measuring the transfer of the radionuclide from the complex to serum proteins as monitored by SE-HPLC. Radiolabeled complexes were diluted to an appropriate volume that allowed for preparation of multiple samples containing 5-10 μCi and filter-sterilized using a Millex-GV 0.22 μm filter. 140 μL of this stock solution was then mixed with 1400 μL of sterile normal human serum or saline. Aliquots (200 μL) were drawn and separated into individual tubes for subsequent analysis using aseptic technique. The samples were incubated at 37° C., and at designated intervals, subjected to analysis by SE-HPLC. Samples were loaded onto the HPLC and eluted with PBS, pH 7.4 isocratically at 1 mL/min. […] Radioactivity associated with a transfer to serum proteins generally appeared between ˜4.5-8 min.
# [3] = Homo sapiens, HT-29, 72 h incubation
compound,measurement,setting,value
Apo-N-NE3TA: ligand-transferin conjugate (apo) of N-NE3TA-NCS,IC50,Hela cells,8.85 ± 1.43 µM
"O=C(O)CNC(Cc1ccc([N+](=O)[O-])cc1)CN1CCN(CC(=O)O)CCN(CC(=O)O)CC1 (centres unmarked) [C-NE3TA, {4-Carboxymethyl-7-[2-(carboxymethyl-amino)-3-(4-nitro-phenyl)-propyl]-[1,4,7]triazonan-1-yl}-acetic acid]",IC50,Hela cells; Homo sapiens,7.1 ± 0.1 µM
same,IC50,HT29 cells; [3],5 ± 0.7 µM
"O=C(O)CNCCN1CCN(CC(=O)O)CCN(CC(=O)O)CC1 [NE3TA, (4-Carboxymethyl-7-[2-(carboxymethyl-amino)-ethyl]-[1,4,7]trizonan-1-yl)-acetic acid]",IC50,Hela cells; Homo sapiens,5.7 ± 0.3 µM
same,IC50,HT29 cells; [3],4.7 ± 0.3 µM
O=C(O)CN1CCN(CCN(CC(=O)O)Cc2ccccc2)CCN(CC(=O)O)CC1.[64Cu] [^64Cu-NE3TA-Bn],"Purity (serum stability, radio-TLC)",[1]; incubation time 1 h,100 ± 0.0
same,"Purity (serum stability, radio-TLC)",[1]; incubation time 4 h,100 ± 0.0
same,"Purity (serum stability, radio-TLC)",[1]; incubation time 24 h,100 ± 0.0
same,"Purity (serum stability, radio-TLC)",[1]; incubation time 48 h,100 ± 0.0
same,stability in rat serum (in words),[1],no measurable loss of radioactivity
O=C(O)CN1CCN(CC(=O)O)CCN(CC(Cc2ccc([N+](=O)[O-])cc2)N(CC(=O)O)CC(=O)O)CC1 (centres unmarked) [C-NETA],IC50,Hela cells,> 100 µM
same,cytotoxicity in HeLa cells over a series of concentrations (in words),Hela cells,virtually no inhibitory activity
same,IC50,HT29 cells; 72 h incubation,45.7 ± 4 µM
O=C(O)CNCCN1CCN(CC(=O)O)CCN(CC(=O)O)CC1.[64Cu] [^64Cu-NE3TA],"Purity (serum stability, radio-TLC)",[1]; incubation time 1 h,100 ± 0.0
same,"Purity (serum stability, radio-TLC)",[1]; incubation time 4 h,100 ± 0.0
same,"Purity (serum stability, radio-TLC)",[1]; incubation time 24 h,100 ± 0.0
same,"Purity (serum stability, radio-TLC)",[1]; incubation time 48 h,100 ± 0.0
same,stability in rat serum (in words),[1],no measurable loss of radioactivity
"CC(CCC(=O)Nc1ccc(CC(CN2CCN(CC(=O)O)CCN(CC(=O)O)CC2)NCC(=O)O)cc1)C1CCC2C3CCC4CC(O)CCC4(C)C3CC(O)C12C (centres unmarked) [DCA-NE3TA, [4-Carboxymethyl-7-(2-(carboxymethyl-amino)-3-{4-[4-(3,12-dihydroxy-10,13-dimethylhexadecahydro-cyclopenta[a]phenanthren-17-yl)-pentanoylamino]-phenyl}-propyl)-[1,4,7]triazonan-1-yl]-acetic acid]",sensitivity of HeLa cells relative to DTPA,Hela cells,approximately 40 fold
same,IC50,Hela cells; Homo sapiens,6.3 ± 0.1 µM
same,IC50,HT29 cells; [3],7.5 ± 0.3 µM
O=C(O)CN1CCN(CCN(CC(=O)O)Cc2ccc([N+](=O)[O-])cc2)CCN(CC(=O)O)CC1 [N-NE3TA],IC50,Hela cells; Homo sapiens,8.4 ± 0.4 µM
same,IC50,HT29 cells; [3],6.8 ± 0.4 µM
O=C(O)CN1CCN(CCO)CCN(CC(=O)O)CC1.[64Cu] [^64Cu-NBEA],"Purity (serum stability, radio-TLC)",[1]; incubation time 1 h,100 ± 0.0
same,"Purity (serum stability, radio-TLC)",[1]; incubation time 4 h,100 ± 0.0
same,"Purity (serum stability, radio-TLC)",[1]; incubation time 24 h,45.3 ± 9.8
same,64Cu dissociated from the complex,[1],54%
O=C(O)CN1CCN(CCN(CC(=O)O)CC(=O)O)CCN(CC(=O)O)CCN(CC(=O)O)CC1.[177Lu] [^177Lu-DEPA],"Radiolabled Complex, in vitro serum stability (Table 1)","[2]; serum, 0 h",100
same,"Radiolabled Complex, in vitro serum stability (Table 1)","[2]; serum, 0.5 h",100
same,"Radiolabled Complex, in vitro serum stability (Table 1)","[2]; serum, 1 h",100
same,"Radiolabled Complex, in vitro serum stability (Table 1)","[2]; serum, 2 h",100
same,"Radiolabled Complex, in vitro serum stability (Table 1)","[2]; serum, 4 h",100
same,"Radiolabled Complex, in vitro serum stability (Table 1)","[2]; serum, 6 h",100
same,"Radiolabled Complex, in vitro serum stability (Table 1)","[2]; serum, 24 h",100
same,"Radiolabled Complex, in vitro serum stability (Table 1)","[2]; serum, 48 h",100
same,"Radiolabled Complex, in vitro serum stability (Table 1)","[2]; serum, 96 h",100
same,serum stability of 177Lu complex (in words),"[2]; serum, up to 96 h",remained intact without being dissociated in serum; also recorded: stable in serum
O=C(O)CN1CCN(CCCO)CCN(CC(=O)O)CC1.[64Cu] [^64Cu-NBPA],"Purity (serum stability, radio-TLC)",[1]; incubation time 1 h,99.6 ± 0.7
same,"Purity (serum stability, radio-TLC)",[1]; incubation time 4 h,97.5 ± 4.4
same,"Purity (serum stability, radio-TLC)",[1]; incubation time 24 h,70.5 ± 6.5
same,64Cu dissociated from the complex,[1],29%
O=C(O)CN1CCN(CCN(CC(=O)O)Cc2ccccc2)CCN(CC(=O)O)CC1 [Bn-NE3TA],IC50,Hela cells,4.4 ± 0.9 µM
same,cytotoxicity in HeLa cells over a series of concentrations (in words),Hela cells,highest activity against HeLa cells
same,IC50,HT29 cells; 72 h incubation,2.6 ± 0.2 µM
"O=C([O-])CN1CCN(CC(=O)[O-])CCN(CC(=O)[O-])CCN(CC(=O)[O-])CC1.[177Lu+3].[H+] [^177Lu-DOTA, reference compound]",radioactivity released from the complex in serum,[2]; over 4 days,~10% and 11%
same,"Radiolabled Complex, in vitro serum stability (Table 1)","[2]; serum, 0 h",100
same,"Radiolabled Complex, in vitro serum stability (Table 1)","[2]; serum, 0.5 h",99.0
same,"Radiolabled Complex, in vitro serum stability (Table 1)","[2]; serum, 1 h",100.1
same,"Radiolabled Complex, in vitro serum stability (Table 1)","[2]; serum, 2 h",99.3
same,"Radiolabled Complex, in vitro serum stability (Table 1)","[2]; serum, 4 h",97.0
same,"Radiolabled Complex, in vitro serum stability (Table 1)","[2]; serum, 6 h",97.5
same,"Radiolabled Complex, in vitro serum stability (Table 1)","[2]; serum, 24 h",98.2
same,"Radiolabled Complex, in vitro serum stability (Table 1)","[2]; serum, 48 h",91.2
same,"Radiolabled Complex, in vitro serum stability (Table 1)","[2]; serum, 96 h",89.6
Holo-N-NE3TA: ligand-transferin conjugate (holo) of N-NE3TA-NCS,IC50,Hela cells,11.5 ± 0.21 µM
Holo-C-NE3TA: ligand-transferin conjugate (holo) of C-NE3TA-NCS,IC50,Hela cells,7.03 ± 0.09 µM
